# In publication PMC9889419 (Pharmacological Reports, 2022):
# Entries after “also recorded” stand apart in the source; their conditions may differ. Where a name gives a salt, the structure may show the parent alone. Read-outs that look alike come from different tables or passages of the source.
# Legend:
# rats [1] = experiment: Maximal electroshock seizure (MES) test; type: in vivo
# 5-HT1A = molecular target: T1, 5-HT1A (Homo sapiens, UniProt P08908); experiment: Radioligand binding
# T1 sequence (P08908 1-422): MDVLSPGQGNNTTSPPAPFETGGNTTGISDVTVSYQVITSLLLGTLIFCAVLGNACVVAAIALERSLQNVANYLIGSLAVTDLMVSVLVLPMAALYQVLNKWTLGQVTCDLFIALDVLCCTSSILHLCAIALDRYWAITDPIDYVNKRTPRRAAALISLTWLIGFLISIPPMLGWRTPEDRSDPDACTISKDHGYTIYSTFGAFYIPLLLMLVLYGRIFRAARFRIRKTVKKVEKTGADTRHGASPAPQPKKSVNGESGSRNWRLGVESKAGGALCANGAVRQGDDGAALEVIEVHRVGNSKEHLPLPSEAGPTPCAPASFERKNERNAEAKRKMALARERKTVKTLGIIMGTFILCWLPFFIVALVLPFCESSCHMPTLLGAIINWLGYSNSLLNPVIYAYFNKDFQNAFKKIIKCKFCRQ
# Experimental: (§1) Radioligand binding. Radioligand binding assays were performed at Eurofins CEREP (France). The results are expressed as a percent of control specific binding (measured specific binding*100/control specific binding) and as a percent inhibition of control specific binding (100-(measured specific binding*100)/control specific binding) obtained in the presence of the test compounds. The IC50 values (concentration causing a half-maximal inhibition of control specific binding) and Hill coefficients (nH) were determined by non-linear regression analysis of the competition curves generated with mean replicate values using Hill equation curve fitting (Y = D + [A-D]/[1 + (C/C50)^nH], where Y = specific binding, A = left asymptote of the curve, D = right asymptote of the curve, C = compound concentration, C50 = IC50, and nH = slope factor). This analysis was performed using software developed at Cerep (Hill software) and validated by comparison with data generated by the commercial software SigmaPlot® 4.0 for Windows® (© 1997 by SPSS Inc.). The inhibition constants (Ki) were calculated using the Cheng Prusoff equation (Ki = IC50/[1 + L/KD], where L = concentration of radioligand in the assay, and KD = affinity of the radioligand for the receptor). A scatchard plot is used to determine the Kd.
# 5-HT transporter = 5-HT transporter (Homo sapiens, UniProt P31645); experiment: Radioligand binding
# Chain of 5-HT transporter (P31645 whole entry): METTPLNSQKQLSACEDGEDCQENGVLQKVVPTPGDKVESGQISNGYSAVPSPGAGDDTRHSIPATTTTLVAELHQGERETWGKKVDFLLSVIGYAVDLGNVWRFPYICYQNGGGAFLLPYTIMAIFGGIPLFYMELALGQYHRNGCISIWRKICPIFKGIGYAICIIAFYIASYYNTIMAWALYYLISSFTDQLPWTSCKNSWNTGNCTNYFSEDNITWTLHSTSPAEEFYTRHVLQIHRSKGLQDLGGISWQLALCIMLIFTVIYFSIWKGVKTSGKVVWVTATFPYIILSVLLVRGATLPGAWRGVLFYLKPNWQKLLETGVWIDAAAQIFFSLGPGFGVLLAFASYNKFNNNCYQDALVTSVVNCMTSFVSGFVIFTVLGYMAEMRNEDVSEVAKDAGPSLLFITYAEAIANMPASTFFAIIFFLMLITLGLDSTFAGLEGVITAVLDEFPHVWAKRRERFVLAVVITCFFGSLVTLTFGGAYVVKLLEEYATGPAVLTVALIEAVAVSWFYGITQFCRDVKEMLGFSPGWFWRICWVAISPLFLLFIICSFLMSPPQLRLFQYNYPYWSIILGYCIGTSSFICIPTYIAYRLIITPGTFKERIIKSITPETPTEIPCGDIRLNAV
# Experimental: as §1
# mice [2] = experiment: Corneal kindling; type: in vivo; settings: ip
# rats [3] = experiment: SCMET (subcutaneous Metrazol) test; type: in vivo; settings: for SCMET ED50: rats
# rats [4] = type: in vivo; settings: ip
# Na+ channel (site 2) = experiment: Radioligand binding; design: species or system rat
# mice [5] = experiment: iv pentylenetetrazole (PTZ) seizure threshold test; settings: compound ip
# Experimental: They were also evaluated in the iv pentylenetetrazole (PTZ) test.
# Data are expressed as the mean PTZ dose ± SEM for n = 10 that induced clonus or twitch in mice exposed to a particular dose of the test compound
# mice [6] = experiment: 6 Hz test; type: in vivo; settings: mice; for ED50: Mus musculus
# Experimental: The 6 Hz model test was carried out according to the protocol originally described by Brown et al. [54] and more recently by Barton et al. [55] and Kamiński et al. [47] and is a model of pharmacoresistant epilepsy [56].
# mice [7] = system: mice
# Experimental: The assays were carried out within the Epilepsy Therapy Screening Program (ETSP, previously known as the Anticonvulsant Screening Program, ASP), Epilepsy Branch, National Institute of Neurological and Communicative Disorders and Stroke, National Institutes of Health in Rockville, MD, USA [23].
# The obtained compounds were screened for antiseizure activity and neurotoxicity in vivo within the Epilepsy Therapy Screening Program (ETSP, previously known as the Anticonvulsant Screening Program, ASP), Epilepsy Branch, National Institute of Neurological and Communicative Disorders and Stroke, National Institutes of Health in Rockville, MD, USA [23].
# Sigma (non-selective) = experiment: Radioligand binding; design: species or system rat
# Experimental: as §1
# [8] = system: Ca2+ channel (L, verapamil site) (phenylalkylamine); experiment: Radioligand binding; design: species or system rat
# Experimental: as §1
# α2 (non-selective) = experiment: Radioligand binding; design: species or system rat
# Experimental: as §1
# [9] = system: organotypic hippocampal slice cultures; experiment: Neuroprotection primary screen, excitotoxin kainic acid; type: cell-based; settings: kainic acid 20 µM, 10 and 100 µM compound
# Experimental: Compound 2 : ADD t{umber, b890s0 Batch: lB- Date Compteted. Ect\,t""201 0 […]
# Excilotoxin: llGinic ncia Insult Duration: l+ Hours Solvent: […]
# Ai lxn zopr.,r aZ lxa zopr,r Ae lre zoprta
# Bz lr<n zopn er ]ra zopr',t l:+aot a r ooprt/|*aa9o8o l oopM lgaeota t oot,tr,t*gB9o8o t oopM […]
# The "Primary screen Experiment" is a qualitative assessment of the ability of a compound to prevent excitotoxic cell dearh. organotypic hippocampal slice clltures are treated with N-methyl-D-aipartate lNuoa; o; kainic acid (KA) to induce neuronal cell death. Propidium iodide (Pl), a membrane-impermeant compound, is included in all welts of the culture plate.
# Dying cells have compromised cell membranes, thus Pl may diffuse into the cell, intercalate with DNA and ftuoresce. Thus, the intensity of the Pl fluorescence is proportional to the amount of cell death in the individual slices. Hippocampal slice cultures are treated with the excitotoxin alone, or where indicated above, with the excitotoxin and either one eltu/o investigational compounds at the concentrations indicated. lf neuroprotection occurs as a consequence of the added […]
# been treated with the excitotoxin alone.
# (1 picture or pasted object on this page, not shown here)
# mice [10] = experiment: Formalin test (ETSP, area under the curve); type: in vivo; settings: ip
compound,measurement,setting,value
"CCC(CO)NCCOc1c(C)cccc1Cl (centres unmarked) [Compound 4, R,S-2-((2-(2-chloro-6-methylphenoxy)ethyl)amino)butan-1-ol]",MES TPE,rats [1]; ip,0.25 h
same,MES ED50,"rats [1]; ip, […]",7.3 (5.39–9.89) mg/kg
same,MES ED50,rats [1]; po,> 60 mg/kg
same,MES PI,rats [1]; po,> 3.55
same,MES ED50,"rats [1]; po, […]",67.69 (43.01–93.82) mg/kg
same,% of control specific binding,5-HT1A; 100 μM,2.1%
same,% of control specific binding,5-HT transporter; 100 μM,5.1%
same,Corneal kindling TPE,mice [2],0.25 h
same,Corneal kindling ED50,mice [2]; […],19.51 (11.86–28.41) mg/kg
same,SCMET ED50,"rats [3]; ip, […]",> 50 mg/kg
same,SCMET ED50,rats [3]; po,> 240 mg/kg
same,Hippocampal kindling avg. seizure score by Racine (0–5),"rats [4]; at 40 mg/kg, 0.25–2.25 h",5
same,% of control specific binding,Na+ channel (site 2); 100 μM,11.6%
same,influence on seizure threshold,mice [5],lowered the seizure threshold; also recorded: showed activity in lowering the seizure threshold
same,6 Hz ED50,"mice [6]; 32 mA, ip",32.4 (28.4–36.0) mg/kg
same,6 Hz TPE,"mice [6]; 32 mA, ip",0.25 h
same,6 Hz ED50,"mice [6]; 44 mA, ip",29.75 (28.3–31.5) mg/kg
same,6 Hz TPE,"mice [6]; 44 mA, ip",0.25 h
same,MES TPE,"mice [7]; female mice, ip",0.25 h
same,MES ED50,"mice [7]; female mice, ip, […]",11.64 (10.55–12.47) mg/kg
same,MES ED50,"mice [7]; mice, ip, […]",21.44 (18.63–25.32) mg/kg
same,MES PI,"mice [7]; mice, po",6.12
same,MES TPE,"mice [7]; mice, po",0.5 h
same,MES ED50,"mice [7]; mice, po, 0.5 h",58.13 (45.58–68.93) mg/kg
same,% of control specific binding,Sigma (non-selective); 100 μM,-2.7%
same,% of control specific binding,[8]; 100 μM,38.5%
same,% of control specific binding,α2 (non-selective); 100 μM,27.7%
same,Test Result (neuroprotection),[9],No Neuroprotection
same,Area under the curve (I phase),mice [10]; 21 mg/kg,124.8 ± 32.7
same,Area under the curve (II phase),mice [10]; 21 mg/kg,569.2 ± 405.0
same,"Area under the curve, % of control (I phase)",mice [10]; 21 mg/kg,64.0%
same,"Area under the curve, % of control (II phase)",mice [10]; 21 mg/kg,72.7%
same,Area under the curve (I phase),"mice [10]; 21 mg/kg, listed as 348014",124.8
same,Area under the curve (II phase),"mice [10]; 21 mg/kg, listed as 348014",569.2
"CCC(CO)NCCOc1c(C)cccc1Cl (centres unmarked) [KM-408, R,S-2-((2-(2-chloro-6-methylphenoxy)ethyl)amino)butan-1-ol hydrochloride]",ED50,"rats [1]; Rattus norvegicus, ip, 0.25 h",5.69 mg/kg
same,MES PI,rats [1]; ip,9.55
same,MES TPE,rats [1]; ip,0.25 h
same,IC50,5-HT1A,1.3 µM
same,Ki,5-HT1A,0.8 µM
same,remaining activity at 0.001 µM,"5-HT1A; 0.001 μM, read-out: % of control specific binding",100%
same,remaining activity at 0.01 µM,"5-HT1A; 0.01 μM, read-out: % of control specific binding",95.9%
same,remaining activity at 0.1 µM,"5-HT1A; 0.1 μM, read-out: % of control specific binding",88.6%
same,remaining activity at 1 µM,"5-HT1A; 1 μM, read-out: % of control specific binding",55.6%
same,remaining activity at 10 µM,"5-HT1A; 10 μM, read-out: % of control specific binding",12.5%
same,IC50,5-HT transporter,3.6 µM
same,Ki,5-HT transporter,1.7 µM
same,remaining activity at 0.003 µM,"5-HT transporter; 0.003 μM, read-out: % of control specific binding",105%
same,remaining activity at 0.03 µM,"5-HT transporter; 0.03 μM, read-out: % of control specific binding",112%
same,remaining activity at 0.3 µM,"5-HT transporter; 0.3 μM, read-out: % of control specific binding",92.8%
same,remaining activity at 3 µM,"5-HT transporter; 3 μM, read-out: % of control specific binding",61%
same,remaining activity at 30 µM,"5-HT transporter; 30 μM, read-out: % of control specific binding",11.5%
same,Corneal kindling avg. seizure score by Racine (0–5),"mice [2]; at 30 mg/kg, […]",2.5
same,ED50,"rats [3]; Rattus norvegicus, ip, […], read-out: SCMET ED50",> 54 mg/kg
same,Hippocampal kindling: death at,rats [4]; […],200 mg/kg
same,IC50,Na+ channel (site 2),15 µM
same,Ki,Na+ channel (site 2),14 µM
same,% of control specific binding,Na+ channel (site 2); 0.3 μM,101.1%
same,% of control specific binding,Na+ channel (site 2); 3 μM,92.0%
same,% of control specific binding,Na+ channel (site 2); 30 μM,40.3%
same,influence on seizure threshold,mice [5],the effect was not observed
same,influence on seizure threshold,mice [5]; listed as KM408,effect was not shown
same,6 Hz TPE,"mice [6]; 32 mA, ip",0.25 h
same,6 Hz TPE,"mice [6]; 44 mA, ip",0.25 h
same,6 Hz TPE,"mice [6]; 44 mA, po",0.25 h
same,ED50,"mice [6]; ip, 32 mA",29.4 mg/kg
same,ED50,"mice [6]; ip, 44 mA",35.1 mg/kg
same,ED50,"mice [6]; po, 44 mA",281 mg/kg
same,MES TPE,"mice [7]; mice, ip",0.25 h
same,IC50,Sigma (non-selective),0.089 µM
same,Ki,Sigma (non-selective),0.072 µM
same,% of control specific binding,Sigma (non-selective); 0.001 μM,104.0%
same,% of control specific binding,Sigma (non-selective); 0.01 μM,97.1%
same,% of control specific binding,Sigma (non-selective); 0.1 μM,50.0%
same,% of control specific binding,Sigma (non-selective); 1 μM,13.1%
same,% of control specific binding,Sigma (non-selective); 10 μM,1.4%
same,IC50,[8],43 µM
same,Ki,[8],22 µM
same,% of control specific binding,[8]; 0.1 μM,101.9%
same,% of control specific binding,[8]; 1 μM,104.4%
same,% of control specific binding,[8]; 3 μM,93.6%
same,% of control specific binding,[8]; 10 μM,80.9%
same,% of control specific binding,[8]; 100 μM,34.8%
same,IC50,α2 (non-selective),24 µM
same,Ki,α2 (non-selective),10 µM
same,% of control specific binding,α2 (non-selective); 0.01 μM,101.3%
same,% of control specific binding,α2 (non-selective); 0.1 μM,111.6%
same,% of control specific binding,α2 (non-selective); 1 μM,101.2%
same,% of control specific binding,α2 (non-selective); 10 μM,73.4%
same,% of control specific binding,α2 (non-selective); 100 μM,23.5%
same,Test Result (neuroprotection),[9]; listed as 367061,No neurop rotection observed
same,Area under the curve (I phase),mice [10]; 13.25 mg/kg,113.7 ± 65.6
same,Area under the curve (II phase),mice [10]; 13.25 mg/kg,489.7 ± 211.3
